Reference: US12495798B2, “Nicotinamide compound and herbicidal composition comprising compound” (KOREA RESEARCH INSTITUTE OF CHEMICAL TECHNOLOGY, priority 2019, dated 2025)

Key:
Assay type in all cases: in vivo
barnyard grass [1] = test: Herbicidal activity test against upland field weeds (soil treatment test); design: key to Soil treatment herbicidal activity, barnyard grass: 0 (no control); 100 (complete control); conditions: 50 g ai/ha, scale 0 (no control) to 100 (complete control)
Experimental: (§1) Experimental Example 2: Herbicidal Activity Test Against Upland Field Weeds (Soil Treatment Test) Soil treatment was performed as follows: After filling a square plastic pot having a surface area of 350 cm^2 with sandy loam mixed with 1 g per pot (350 cm^2) of horticultural mixed fertilizer (N:P:K=11:10:11), seeds (10˜15 grains) or rootstocks (2 pieces) of 5 kinds of grassy weeds of sorghum, barnyard grass, quack grass, crabgrass, fall panicum, and 5 kinds of broadleaf weeds of black nightshade, indian jointvetch, velvetleaf, cocklebur, bindweed, which had been stored in a low temperature (6° C.), were sown. The day after sowing, test compound solutions were made by diluting with a preparation solution (including 50% acetone, 0.1% Tween-20) so that the final treatment amount of the test compounds was 50 or 75 g a.i./ha. The prepared test compound solution was used for treating soil surface by hand-spraying 14 mL per pot in a fume hood. After the treatment, it was managed under the same greenhouse conditions (average temperature 30±5° C., light/dark=14/10 hours), and after 14 days (after 21 days if necessary), the external symptoms and efficacy were investigated according to the scale of 0 (no control) to 100 (complete control). The results of Table 8 were obtained by evaluating weed control value to the untreated control by conducting visual assessment.

velvetleaf [2] = test: Herbicidal activity test against upland field weeds (foliar treatment test); conditions: 50 g ai/ha, scale 0-100
Summary of the method: (§2)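 Visual 0–100 control ratings relative to untreated plants, taken 14 (or 21) days after spraying foliage at 50 or 75 g a.i./ha. Spray solution: 50% acetone with 0.1% Tween-20; plants kept in greenhouse at 30±5 °C, 14 h light/10 h dark.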

barnyard grass [3] = test: as above; design: key to Foliar treatment herbicidal activity, barnyard grass: 0 (no control); 100 (complete control); conditions: 50 g ai/ha, scale 0-100
Summary of the method: as §2

fall panicum [4] = test: Herbicidal activity test against upland field weeds (soil treatment test); design: key to Soil treatment herbicidal activity, Fall panicum: 0 (no control); 100 (complete control); conditions: 50 g ai/ha, scale 0 (no control) to 100 (complete control)
Experimental: as §1

quack grass [5] = test: as above; design: key to Soil treatment herbicidal activity, quack grass: 0 (no control); 100 (complete control); conditions: 50 g ai/ha, scale 0 (no control) to 100 (complete control)
Experimental: as §1

sorghum [6] = test: as above; design: key to Soil treatment herbicidal activity, Sorghum: 0 (no control); 100 (complete control); conditions: 50 g ai/ha, scale 0 (no control) to 100 (complete control)
Experimental: as §1

fall panicum [7] = test: Herbicidal activity test against upland field weeds (foliar treatment test); conditions: 50 g ai/ha, scale 0-100
Summary of the method: as §2

crabgrass [8] = test: as above; conditions: 50 g ai/ha, scale 0-100
Summary of the method: as §2

bindweed = test: as above; design: key to Foliar treatment herbicidal activity, Bindweed: 0 (no control); 100 (complete control); conditions: 50 g ai/ha, scale 0-100
Summary of the method: as §2

indian jointvetch [9] = test: as above; conditions: 50 g ai/ha, scale 0-100
Summary of the method: as §2

black nightshade [10] = test: Herbicidal activity test against upland field weeds (soil treatment test); design: key to Soil treatment herbicidal activity, black nightshade: 0 (no control); 100 (complete control); conditions: 50 g ai/ha, scale 0 (no control) to 100 (complete control)
Experimental: as §1

velvetleaf [11] = test: as above; design: key to Soil treatment herbicidal activity, velvet leaf: 0 (no control); 100 (complete control); conditions: 50 g ai/ha, scale 0 (no control) to 100 (complete control)
Experimental: as §1

cocklebur = test: Herbicidal activity test against upland field weeds (foliar treatment test); design: key to Foliar treatment herbicidal activity, Cocklebur: 0 (no control); 100 (complete control); conditions: 50 g ai/ha, scale 0-100
Summary of the method: as §2

sorghum [12] = test: as above; conditions: 50 g ai/ha, scale 0-100
Summary of the method: as §2

crabgrass [13] = test: Herbicidal activity test against upland field weeds (soil treatment test); design: key to Soil treatment herbicidal activity, Crabgrass: 0 (no control); 100 (complete control); conditions: 50 g ai/ha, scale 0 (no control) to 100 (complete control)
Experimental: as §1

quack grass [14] = test: Herbicidal activity test against upland field weeds (foliar treatment test); design: key to Foliar treatment herbicidal activity, quack grass: 0 (no control); 100 (complete control); conditions: 50 g ai/ha, scale 0-100
Summary of the method: as §2

indian jointvetch [15] = test: Herbicidal activity test against upland field weeds (soil treatment test); design: key to Soil treatment herbicidal activity, Indian jointvetch: 0 (no control); 100 (complete control); conditions: 50 g ai/ha, scale 0 (no control) to 100 (complete control)
Experimental: as §1

black nightshade [16] = test: Herbicidal activity test against upland field weeds (foliar treatment test); conditions: 50 g ai/ha, scale 0-100
Summary of the method: as §2

cotton [17] = test: Phytotoxicity test for upland field crops (foliar treatment test); design: key: 0 (no harm); 9 (complete withered)
Summary of the method: (§3)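 Spray-booth foliar treatment of greenhouse-grown crops at 19˜300 g a.i./ha. Visual crop injury was scored 0–9 against untreated plants at 7 and 14 days.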

soybean [18] = test: as above; design: key: 0 (no harm); 9 (complete withered)
Summary of the method: as §3

corn [19] = test: as above; design: key: 0 (no harm); 9 (complete withered)
Summary of the method: as §3

rice [20] = test: as above; design: key: 0 (no harm); 9 (complete withered)
Summary of the method: as §3

wheat [21] = test: as above; design: key: 0 (no harm); 9 (complete withered)
Summary of the method: as §3

cotton [22] = test: Phytotoxicity test for field crops (soil treatment test); design: key: 0 (no harm); 9 (complete withered)
Experimental: (§4) Experimental Example 4: Phytotoxicity Test for Field Crops (Soil Treatment Test)
(§5) Soil treatment was performed for sown crops and weeds in a square plastic pot having a surface area of 50 cm^2 filled with sterilized horticultural soil (pH 6.1, organic material 1.0%, clay 21%, silt 17%, sand 52%). As a fertilizer per pot, 0.5 g of horticultural mixed fertilizer (N:P:K=17:21:17) was treated by mixing with soil. Five kinds of crops such as rice, wheat, corn, soybean, and cotton were sown in each pot. One day after sowing, test compound solutions were made by diluting with the diluent (33% acetone, 0.1% Tween-20) so that the final treatment amount of the test compounds was 19˜300 g a.i./ha. The prepared test compound solutions were treated using a spray booth (SB6-016) at a treatment amount of 100 ml per 1 m^2 of treatment area. The treated crops were managed in greenhouse conditions (average temperature 30±5° C., light/dark=14/10 hours). External symptoms and phytotoxicity were visually investigated 10 and 20 days after treatment. In the evaluation of the phytotoxicity for the crop, the grade of 0 (no harm) to 9 (complete withered) was used. The results of Table 10 were obtained by evaluating phytotoxicity value to the untreated control.

soybean [23] = test: as above; design: key: 0 (no harm); 9 (complete withered)
Experimental: as §4, §5

corn [24] = test: as above; design: key: 0 (no harm); 9 (complete withered)
Experimental: as §4, §5

rice [25] = test: as above; design: key: 0 (no harm); 9 (complete withered)
Experimental: as §4, §5

wheat [26] = test: as above; design: key: 0 (no harm); 9 (complete withered)
Experimental: as §4, §5

## CCOC(=O)OC(C)N(C(=S)c1ccc(C(F)(F)F)nc1CSCc1nnn(C)n1)c1nnnn1C (stereo not shown) [Compound No. 4-9, ethyl (1-(N-(1-methyl-1H-tetrazol-5-yl)-2-((((2-methyl-2H-tetrazol-5-yl)methyl)thio)methyl)-6-(trifluoromethyl)pyridin-3-carbothioamido)ethyl)carbonate]
Barnyard grass [1]
  Soil treatment herbicidal activity, barnyard grass: 0
Velvetleaf [2]
  Foliar treatment herbicidal activity, velvet leaf: 98
Barnyard grass [3]
  Foliar treatment herbicidal activity, barnyard grass: 100
Fall panicum [4]
  Soil treatment herbicidal activity, Fall panicum: 0
Quack grass [5]
  Soil treatment herbicidal activity, quack grass: 0
Sorghum [6]
  Soil treatment herbicidal activity, Sorghum: 0
Fall panicum [7]
  Foliar treatment herbicidal activity, Fall panicum: 90
Crabgrass [8]
  Foliar treatment herbicidal activity, Crabgrass: 98
bindweed
  Foliar treatment herbicidal activity, Bindweed: 100
Indian jointvetch [9]
  Foliar treatment herbicidal activity, Indian jointvetch: 98
Black nightshade [10]
  Soil treatment herbicidal activity, black nightshade: 100
Velvetleaf [11]
  Soil treatment herbicidal activity, velvet leaf: 100
cocklebur
  Foliar treatment herbicidal activity, Cocklebur: 100
Sorghum [12]
  Foliar treatment herbicidal activity, Sorghum: 70
Crabgrass [13]
  Soil treatment herbicidal activity, Crabgrass: 0
Quack grass [14]
  Foliar treatment herbicidal activity, quack grass: 0
Indian jointvetch [15]
  Soil treatment herbicidal activity, Indian jointvetch: 100
Black nightshade [16]
  Foliar treatment herbicidal activity, black nightshade: 98

## Cn1nnnc1NC(=O)c1ccc(C(F)(F)F)nc1Sc1nnnn1C [Compound No. 1-40, N-(1-methyl-1H-tetrazol-5-yl)-2-((1-methyl-1H-tetrazol-5-yl)thio)-6-(trifluoromethyl)nicotinamide]
Cotton [17]; 50 g ai/ha, Cotton (7 days after treatment)
  Foliar treatment phytotoxicity, Cotton: 2
Cotton [17]; 50 g ai/ha, Cotton (14 days after treatment)
  Foliar treatment phytotoxicity, Cotton: 3
Cotton [17]; 100 g ai/ha, Cotton (7 days after treatment)
  Foliar treatment phytotoxicity, Cotton: 3
Cotton [17]; 100 g ai/ha, Cotton (14 days after treatment)
  Foliar treatment phytotoxicity, Cotton: 4
Soybean [18]; 50 g ai/ha, Soybean (7 days after treatment)
  Foliar treatment phytotoxicity, Soybean: 6
Soybean [18]; 50 g ai/ha, Soybean (14 days after treatment)
  Foliar treatment phytotoxicity, Soybean: 5
Soybean [18]; 100 g ai/ha, Soybean (7 days after treatment)
  Foliar treatment phytotoxicity, Soybean: 6
Soybean [18]; 100 g ai/ha, Soybean (14 days after treatment)
  Foliar treatment phytotoxicity, Soybean: 5
Corn [19]; 50 g ai/ha, Corn (7 days after treatment)
  Foliar treatment phytotoxicity, Corn: 0
Corn [19]; 50 g ai/ha, Corn (14 days after treatment)
  Foliar treatment phytotoxicity, Corn: 0
Corn [19]; 100 g ai/ha, Corn (7 days after treatment)
  Foliar treatment phytotoxicity, Corn: 0
Corn [19]; 100 g ai/ha, Corn (14 days after treatment)
  Foliar treatment phytotoxicity, Corn: 0
Rice [20]; 50 g ai/ha, Rice (7 days after treatment)
  Foliar treatment phytotoxicity, Rice: 0
Rice [20]; 50 g ai/ha, Rice (14 days after treatment)
  Foliar treatment phytotoxicity, Rice: 0
Rice [20]; 100 g ai/ha, Rice (7 days after treatment)
  Foliar treatment phytotoxicity, Rice: 0
Rice [20]; 100 g ai/ha, Rice (14 days after treatment)
  Foliar treatment phytotoxicity, Rice: 1
Wheat [21]; 50 g ai/ha, Wheat (7 days after treatment)
  Foliar treatment phytotoxicity, Wheat: 0
Wheat [21]; 50 g ai/ha, Wheat (14 days after treatment)
  Foliar treatment phytotoxicity, Wheat: 0
Wheat [21]; 100 g ai/ha, Wheat (7 days after treatment)
  Foliar treatment phytotoxicity, Wheat: 1
Wheat [21]; 100 g ai/ha, Wheat (14 days after treatment)
  Foliar treatment phytotoxicity, Wheat: 0
Cotton [22]; 50 g ai/ha, Cotton (10 days after treatment)
  Soil treatment phytotoxicity, Cotton: 1
Cotton [22]; 50 g ai/ha, Cotton (20 days after treatment)
  Soil treatment phytotoxicity, Cotton: 0
Cotton [22]; 100 g ai/ha, Cotton (10 days after treatment)
  Soil treatment phytotoxicity, Cotton: 3
Cotton [22]; 100 g ai/ha, Cotton (20 days after treatment)
  Soil treatment phytotoxicity, Cotton: 0
Soybean [23]; 50 g ai/ha, Soybean (10 days after treatment)
  Soil treatment phytotoxicity, Soybean: 0
Soybean [23]; 50 g ai/ha, Soybean (20 days after treatment)
  Soil treatment phytotoxicity, Soybean: 0
Soybean [23]; 100 g ai/ha, Soybean (10 days after treatment)
  Soil treatment phytotoxicity, Soybean: 0
Soybean [23]; 100 g ai/ha, Soybean (20 days after treatment)
  Soil treatment phytotoxicity, Soybean: 0
Corn [24]; 50 g ai/ha, Corn (10 days after treatment)
  Soil treatment phytotoxicity, Corn: 0
Corn [24]; 50 g ai/ha, Corn (20 days after treatment)
  Soil treatment phytotoxicity, Corn: 0
Corn [24]; 100 g ai/ha, Corn (10 days after treatment)
  Soil treatment phytotoxicity, Corn: 0
Corn [24]; 100 g ai/ha, Corn (20 days after treatment)
  Soil treatment phytotoxicity, Corn: 0
Rice [25]; 50 g ai/ha, Rice (10 days after treatment)
  Soil treatment phytotoxicity, Rice: 0
Rice [25]; 50 g ai/ha, Rice (20 days after treatment)
  Soil treatment phytotoxicity, Rice: 0
Rice [25]; 100 g ai/ha, Rice (10 days after treatment)
  Soil treatment phytotoxicity, Rice: 0
Rice [25]; 100 g ai/ha, Rice (20 days after treatment)
  Soil treatment phytotoxicity, Rice: 0
Wheat [26]; 50 g ai/ha, Wheat (10 days after treatment)
  Soil treatment phytotoxicity, Wheat: 0
Wheat [26]; 50 g ai/ha, Wheat (20 days after treatment)
  Soil treatment phytotoxicity, Wheat: 0
Wheat [26]; 100 g ai/ha, Wheat (10 days after treatment)
  Soil treatment phytotoxicity, Wheat: 0
Wheat [26]; 100 g ai/ha, Wheat (20 days after treatment)
  Soil treatment phytotoxicity, Wheat: 0
